Toxic doses and inconclusive results are not listed. No stated cut-off is given here; in the data, active means T/C of 150% or more; inactive means T/C below 125%.
System: L1210 leukemia ip in BDF1 mice, survival T/C
Experiment: NCI In Vivo Anticancer Drug Screen. Data for tumor model L1210 Leukemia (intraperitoneal) in B6D2F1 (BDF1) mice
Details: endpoint: mean survival time, higher = longer survival
In short: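 Value reflects the ratio of survival in compound-treated mice to survival in vehicle-treated controls, with both groups carrying the same transplanted tumor.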

[1] = dose: 100.0 mg/kg/injection, schedule: Q04DX003 (ip), vehicle: Klucel (hydroxypropylcellulose) (HPC)
[2] = dose: 200.0 mg/kg/injection, schedule: Q04DX003 (ip), vehicle: Klucel (hydroxypropylcellulose) (HPC)
[3] = dose: 400.0 mg/kg/injection, schedule: Q04DX003 (ip), vehicle: Klucel (hydroxypropylcellulose) (HPC)
[4] = dose: 100.0 mg/kg/injection, schedule: Q04DX002 (ip), vehicle: saline with Tween-80
[5] = dose: 100.0 mg/kg/injection, schedule: Q01DX001 (ip), vehicle: saline
[6] = dose: 400.0 mg/kg/injection, schedule: Q01DX001 (ip), vehicle: saline
[7] = dose: 100.0 mg/kg/injection, schedule: Q01DX001 (ip), vehicle: carboxymethylcellulose (CMC)
[8] = dose: 200.0 mg/kg/injection, schedule: Q01DX001 (ip), vehicle: carboxymethylcellulose (CMC)
[9] = dose: 400.0 mg/kg/injection, schedule: Q01DX001 (ip), vehicle: carboxymethylcellulose (CMC)
[10] = dose: 200.0 mg/kg/injection, schedule: Q01DX001 (ip), vehicle: saline
[11] = dose: 100.0 mg/kg/injection, schedule: Q01DX001 (ip), vehicle: saline with Tween-80
[12] = dose: 200.0 mg/kg/injection, schedule: Q01DX001 (ip), vehicle: saline with Tween-80
[13] = dose: 100.0 mg/kg/injection, schedule: Q01DX009 (ip), vehicle: Klucel (hydroxypropylcellulose) (HPC)
[14] = dose: 200.0 mg/kg/injection, schedule: Q01DX009 (ip), vehicle: Klucel (hydroxypropylcellulose) (HPC)
[15] = dose: 400.0 mg/kg/injection, schedule: Q01DX009 (ip), vehicle: Klucel (hydroxypropylcellulose) (HPC)

Measured: T/C

Nc1ccc(C(=O)O)c(C(=O)O)c1
inactive: dose: 100.0 mg/kg/injection, schedule: Q01DX009 (ip), vehicle: saline with Tween-80 101 % of control | [1] 100 % of control | dose: 200.0 mg/kg/injection, schedule: Q01DX009 (ip), vehicle: saline with Tween-80 91 % of control | [2] 98 % of control | [3] 102 % of control

CCc1cccc(CC)c1NC(=S)NN
inactive: [4] 103 % of control

CC(C)CCSc1nc(N)nc2nc[nH]c12
inactive: dose: 62.5 mg/kg/injection, schedule: Q01DX Z (ip), vehicle: carboxymethylcellulose (CMC) 122 % of control | dose: 125.0 mg/kg/injection, schedule: Q01DX Z (ip), vehicle: carboxymethylcellulose (CMC) 107 % of control | dose: 250.0 mg/kg/injection, schedule: Q01DX Z (ip), vehicle: carboxymethylcellulose (CMC) 100 % of control

COc1cc(Br)c(CCC(=O)O)cc1OC
inactive: dose: 100.0 mg/kg/injection, schedule: Q01DX009 (ip), vehicle: saline 97 % of control | dose: 100.0 mg/kg/injection, schedule: Q04DX003 (ip), vehicle: saline with Tween-80 96 % of control | dose: 200.0 mg/kg/injection, schedule: Q01DX009 (ip), vehicle: saline 94 % of control | dose: 200.0 mg/kg/injection, schedule: Q04DX003 (ip), vehicle: saline with Tween-80 114 % of control | dose: 400.0 mg/kg/injection, schedule: Q01DX009 (ip), vehicle: saline 100 % of control | dose: 400.0 mg/kg/injection, schedule: Q04DX003 (ip), vehicle: saline with Tween-80 91 % of control

Oc1c(Br)cc(Br)cc1/C=N/N1CCN(/N=C/c2cc(Br)cc(Br)c2O)CC1
inactive: [5] 87 % of control | [6] 90 % of control

COC(=O)C(Cc1c[nH]c2ccccc12)NC(=O)C(NC(=O)OC(C)(C)C)C(C)C (stereo not given)
inactive: [7] 100 % of control | [8] 94 % of control | [9] 92 % of control

CCC(O)C(c1ccccc1)(c1ccccc1)C(C)CN(C)C (stereo not given)
inactive: [5] 100 % of control | [10] 97 % of control

CCOC(=O)c1cnc(SC)nc1NC(C(=O)OCC)C(=O)OCC
inactive: [1] 93 % of control | [2] 100 % of control | [3] 95 % of control

O=C1c2cscc2Cc2sccc21
inactive: [11] 95 % of control | [12] 92 % of control | dose: 400.0 mg/kg/injection, schedule: Q01DX001 (ip), vehicle: saline with Tween-80 88 % of control

CC(=O)OCC1CCC1
inactive: [5] 93 % of control | dose: 100.0 mg/kg/injection, schedule: Q04DX002 (ip), vehicle: saline 105 % of control | [10] 91 % of control | dose: 200.0 mg/kg/injection, schedule: Q04DX002 (ip), vehicle: saline 118 % of control | [6] 90 % of control | dose: 400.0 mg/kg/injection, schedule: Q04DX002 (ip), vehicle: saline 96 % of control

O=C(COc1ccc(Cl)cc1)Nc1ccc(Br)cc1
inactive: dose: 100.0 mg/kg/injection, schedule: Q04DX002 (ip), vehicle: gum acacia 97 % of control | dose: 200.0 mg/kg/injection, schedule: Q04DX002 (ip), vehicle: gum acacia 106 % of control | dose: 400.0 mg/kg/injection, schedule: Q04DX002 (ip), vehicle: gum acacia 95 % of control

CC(=O)OC1=C(c2ccccc2)C(=O)c2ccccc21
inactive: dose: 40.0 mg/kg/injection, schedule: Q01DX009 (ip), vehicle: Klucel (hydroxypropylcellulose) (HPC) 94 % of control | dose: 75.0 mg/kg/injection, schedule: Q01DX001 (ip), vehicle: Klucel (hydroxypropylcellulose) (HPC) 95 % of control | dose: 75.0 mg/kg/injection, schedule: Q01DX009 (ip), vehicle: Klucel (hydroxypropylcellulose) (HPC) 94 % of control | dose: 150.0 mg/kg/injection, schedule: Q01DX001 (ip), vehicle: Klucel (hydroxypropylcellulose) (HPC) 96 % of control | dose: 150.0 mg/kg/injection, schedule: Q01DX009 (ip), vehicle: Klucel (hydroxypropylcellulose) (HPC) 88 % of control

CCn1cnc2c(SC(C)C)ncnc21
inactive: dose: 16.0 mg/kg/injection, schedule: Q01DX Z (ip), vehicle: carboxymethylcellulose (CMC) 95 % of control | dose: 31.0 mg/kg/injection, schedule: Q01DX Z (ip), vehicle: carboxymethylcellulose (CMC) 101 % of control | dose: 62.0 mg/kg/injection, schedule: Q01DX Z (ip), vehicle: carboxymethylcellulose (CMC) 107 % of control

NC(=O)c1ccc(Cl)c([N+](=O)[O-])c1
inactive: [1] 110 % of control | [2] 109 % of control

CC(C)(CCCCC(C)(C)NC(=O)Nc1ccc(Cl)c(Cl)c1)NC(=O)Nc1ccc(Cl)c(Cl)c1
inactive: [7] 92 % of control | [8] 87 % of control

O=C(O)c1ccc(N=Nc2nc3ccccc3[nH]2)cc1
inactive: dose: 50.0 mg/kg/injection, schedule: Q01DX009 (ip), vehicle: Klucel (hydroxypropylcellulose) (HPC) 90 % of control | [13] 93 % of control | [14] 90 % of control

CN(C)c1ccc(/C=N\NC(=O)CCCCC(=O)N/N=C\c2ccc(N(C)C)cc2)cc1
inactive: [1] 94 % of control | [2] 91 % of control | [3] 91 % of control

N#CC1C(=O)NC(=O)C(C#N)C12CCCC(C(F)(F)F)C2 (stereo not given)
inactive: dose: 50.0 mg/kg/injection, schedule: Q01DX001 (ip), vehicle: saline 104 % of control | [5] 98 % of control | [10] 106 % of control | [6] 98 % of control

NC(=O)c1ccccc1NC(=O)Nc1cc(C(F)(F)F)ccc1Cl
inactive: [13] 96 % of control | [14] 86 % of control | [15] 97 % of control

CCOC(=O)/C=C/c1cccc([N+](=O)[O-])c1
inactive: [1] 98 % of control | [2] 91 % of control | [3] 101 % of control

COc1ccc(-c2c(N)nc(=S)[nH]c2C(=O)O)cc1
inactive: [13] 97 % of control | [1] 100 % of control | [14] 94 % of control | [2] 101 % of control | [15] 103 % of control | [3] 106 % of control

COC(=O)C1=C(C(=O)OC)C2C=CC1C1(C)N=C(OC)C21C (stereo not given)
inactive: [4] 100 % of control | dose: 200.0 mg/kg/injection, schedule: Q04DX002 (ip), vehicle: saline with Tween-80 100 % of control | dose: 400.0 mg/kg/injection, schedule: Q04DX002 (ip), vehicle: saline with Tween-80 102 % of control

C/C(=C\Cl)COC(C)(C)C
inactive: [11] 94 % of control | [12] 94 % of control

CC(NC(=O)c1cnc2ccccc2n1)C(=O)NCC(=O)O (stereo not given)
inactive: [7] 93 % of control | [8] 89 % of control | [9] 94 % of control

COc1ccc(Nc2ccc(OC)cc2C(=O)O)cc1
inactive: dose: 75.0 mg/kg/injection, schedule: Q01DX001 (ip), vehicle: saline 102 % of control | dose: 75.0 mg/kg/injection, schedule: Q01DX009 (ip), vehicle: saline 89 % of control | dose: 150.0 mg/kg/injection, schedule: Q01DX001 (ip), vehicle: saline 102 % of control | dose: 150.0 mg/kg/injection, schedule: Q01DX009 (ip), vehicle: saline 104 % of control | dose: 300.0 mg/kg/injection, schedule: Q01DX001 (ip), vehicle: saline 104 % of control | dose: 300.0 mg/kg/injection, schedule: Q01DX009 (ip), vehicle: saline 101 % of control

— PubChem BioAssay AID248 (DTP/NCI, 2004)
